Read-outs that look alike come from different tables or passages of the source. Where no end group is shown, it is not given here.
Legend:
[1] = system: BT-549 breast cancer cells; conditions: for effect on viability of BT-549 breast cancer cells: two doubling times, CCK-8; for IC50: 96 h
Procedure: The effect of Peptides 7M and 7MM on BT-549 breast cancer cells (ATCC #HTB-122) was studied. Pierce Protein Transfection reagent (Thermo Scientific, 89850) was used to deliver peptide to the cultured cells. BT-549 breast cancer cells were transfected with 0.625-20 μM Peptide 7M or 1.25-10 μM Peptide 7MM for 3.5 hrs, incubated in a complete media for a duration of two doubling times (96 hours), and assessed for viability by using a CCK-8 colorimetric assay.
(§1) IC50 values were calculated from obtained equations that describe cell viability as a function of peptide concentration.

cancer cells = assay: Viability of cancer cells, summary statement; assay type: cell-based
CMG helicase [2] = target: T1, CMG helicase (Xenopus laevis, UniProt Q91876); assay: S phase arrested Xenopus egg extracts, chromatin RPA Western blot as readout for DNA helicase activity; assay type: biochemical; conditions: 250 μM peptide, 90 min incubation
T1 construct: from tissue; host or cells: S phase arrested Xenopus egg extracts (endogenous proteins on chromatin)
Procedure: The peptide of SEQ ID NO: 1 was synthesized using solid-phase synthesis. The product was purified using HPLC to a purity of about 99%. 250 μM of peptide Ex7 ([…]) (SEQ ID NO: 8), peptide 7N (circularized—KGEVLQMEDDLV) (SEQ ID NO: 9), peptide 7M (ISFQLMLCVLDYF) (SEQ ID NO: 1), or peptide 7C (IKLSPPMLLKEPYK) (SEQ ID NO: 10) were incubated in S phase arrested Xenopus egg extracts. Following a 90 min incubation, chromatin was isolated and probed by Western blotting for RPA protein as a readout for DNA helicase activity. Additionally, peptide 7MN (ISFQLML) (SEQ ID NO: 5), peptide 7MM (QLMLCVL) (SEQ ID NO: 2), and peptide 7MC (LCVLDYF) (SEQ ID NO: 6) were tested.
250 μM of each of peptides 7α (DLVISFQLMLCVLDYFIK) (SEQ ID NO: 14), 7α-ln (LVISFQLMLCVLDYFIK) (SEQ ID NO: 22), 7α-2n (VISFQLMLCVLDYFIK) (SEQ ID NO: 23), 7α-3n (ISFQLMLCVLDYFIK) (SEQ ID NO: 24), 7α-4n (SFQLMLCVLDYFIK) (SEQ ID NO: 25), 7α-5n (FQLMLCVLDYFIK) (SEQ ID NO: 26), 7α-6n (QLMLCVLDYFIK) (SEQ ID NO: 27), 7α-7n (LMLCVLDYFIK) (SEQ ID NO: 28), 7α-17c (DLVISFQLMLCVLDYF) (SEQ ID NO: 29), 7α-16c (DLVISFQLMLCVLDY) (SEQ ID NO: 30), 7α-15c (DVISFQLMLCVLD) (SEQ ID NO: 31), 7α-14c (DVISFQLMLCVL) (SEQ ID NO: 32), 7α-11c (DVISFQLML) (SEQ ID NO: 33) was incubated in S phase arrested Xenopus egg extracts. Following a 90 min incubation, chromatin was isolated and probed by Western blotting for RPA protein as a readout for DNA helicase activity.

CMG helicase [3] = target: T1, CMG helicase; assay: as above; assay type: biochemical; conditions: extended from the above and other findings; no test described
[4] = system: HT1080 fibrosarcoma cancer cells
Procedure: as §1

[5] = system: PC3 prostate cancer cells
Procedure: The effect of peptide 7α of viability of prostate cancer cells was studied. PC3 prostate cancer cells (ATCC #CRL-1435) were transfected with 1.25-10 μM peptide 7α for 3.5 hrs, incubated in a complete media for a duration of two doubling times, and assessed for viability by using a CCK-8 colorimetric assay (Dojindo Molecular Technologies, Inc.).
The effect of peptide 7MM of viability of prostate cancer cells was studied. PC3 prostate cancer cells (ATCC #CRL-1435) were transfected with 1.25-10 μM peptide 7MM for 3.5 hrs, incubated in a complete media for a duration of two doubling times, and assessed for viability by using a CCK-8 colorimetric assay (Dojindo Molecular Technologies, Inc.).
as §1

[6] = system: SVG p12 immortalized astroglia cells
Procedure: as §1

[7] = system: HCT-116 colorectal cancer cells
Procedure: The effect of peptide 7MM of viability of colorectal cancer cells was studied. HCT-116 colorectal cancer cells (ATCC #CCL-247) were transfected with 1.25-10 μM peptide 7MM for 3.5 hrs, incubated in a complete media for a duration of two doubling times, and assessed for viability by using a CCK-8 colorimetric assay (Dojindo Molecular Technologies, Inc.).
as §1

[8] = system: M059J glioma cancer cells; conditions: for IC50: 48 h
Procedure: (§2) Pierce Protein Transfection reagent (Thermo Scientific, 89850) was used to deliver peptide to the cultured cells.
M059J glioma cancer cells (ATCC #CRL-2366) were transfected with 1.25-10 μM peptide 7α for 3.5 hrs, incubated in a complete media for a duration of two doubling times, and assessed for viability by using a CCK-8 colorimetric assay (Dojindo Molecular Technologies, Inc.).
M059J glioma cancer cells (ATCC #CRL-2366) were transfected with 1.25-10 μM peptide 7MM for 3.5 hrs, incubated in a complete media for a duration of two doubling times, and assessed for viability by using a CCK-8 colorimetric assay (Dojindo Molecular Technologies, Inc.).
as §1

[9] = system: hTERT-HPNE immortalized normal pancreatic cells
Procedure: as §1

HepG2 liver cancer cells = conditions: 96 h
Procedure: as §2, §1

[10] = system: DU145 prostate cancer cells
Procedure: DU145 prostate cancer cells (ATCC #HTB-81) were transfected with 1.25-10 μM peptide 7α for 3.5 hrs, incubated in a complete media for a duration of two doubling times, and assessed for viability by using a CCK-8 colorimetric assay (Dojindo Molecular Technologies, Inc.).
DU145 prostate cancer cells (ATCC #HTB-81) were transfected with 1.25-10 μM peptide 7MM for 3.5 hrs, incubated in a complete media for a duration of two doubling times, and assessed for viability by using a CCK-8 colorimetric assay (Dojindo Molecular Technologies, Inc.).
as §1

[11] = system: THLE-3 immortalized normal liver cells
Procedure: as §1

[12] = system: Hs 766T pancreatic cancer cells
Procedure: as §1

[13] = system: U-2 OS osteosarcoma cancer cells
Procedure: as §1

[14] = system: PANC-1 pancreatic cancer cells; conditions: 48 h
Procedure: The effect of Peptides 7M and 7MM on PANC-1 pancreatic cancer cells (ATCC #CRL-1469) was studied. Pierce Protein Transfection reagent (Thermo Scientific, 89850) was used to deliver peptide to the cultured cells. PANC-1 pancreatic cancer cells were transfected with 0.625-10 μM Peptide 7M or Peptide 7MM for 3.5 hrs, incubated in a complete media for a duration of two doubling times (48 hours), and assessed for viability by using a CCK-8 colorimetric assay.
The effect of peptide 7α of viability of pancreatic cancer cells was studied. PANC-1 pancreatic cancer cells (ATCC #CRL-1469) were transfected with 1.25-10 μM peptide 7α for 3.5 hrs, incubated in a complete media for a duration of two doubling times, and assessed for viability by using a CCK-8 colorimetric assay (Dojindo Molecular Technologies, Inc.).
as §1

[15] = system: HMEC primary mammary epithelial normal cells
Procedure: HMEC mammary epithelial cells (ATCC #PCS-600-010) were transfected with 1.25-20 μM peptide 7α for 3.5 hrs, incubated in a complete media for a duration of two doubling times, and assessed for viability by using a CCK-8 colorimetric assay (Dojindo Molecular Technologies, Inc.).
HMEC primary normal epithelial breast cells (ATCC #PCS-600-010) were transfected with 1.25-10 μM peptide 7MM for 3.5 hrs, incubated in a complete media for a duration of two doubling times, and assessed for viability by using a CCK-8 colorimetric assay (Dojindo Molecular Technologies, Inc.).
as §1

[16] = system: HLF normal primary lung fibroblasts
Procedure: The effect of peptide 7α of viability of HLF normal primary lung fibroblasts was studied. HLF normal primary lung fibroblasts (ATCC #PCS-201-013) were transfected with 1.25-10 μM peptide 7α for 3.5 hrs, incubated in a complete media for a duration of two doubling times, and assessed for viability by using a CCK-8 colorimetric assay (Dojindo Molecular Technologies, Inc.).
The effect of peptide 7MM of viability of normal lung cells was studied. HLF normal primary lung fibroblasts (ATCC #PC S-201-013) were transfected with 1.25-10 μM peptide 7MM for 3.5 hrs, incubated in a complete media for a duration of two doubling times, and assessed for viability by using a CCK-8 colorimetric assay (Dojindo Molecular Technologies, Inc.).
as §1

[17] = transfected 1.25-10 μM for 3.5 hrs
[18] = conclusion drawn from Examples 39, 41, 42 and FIGS. 42, 44, 45
[19] = extended from the above and other findings, no test described
[20] = transfected 2.5 and 5.0 μM for 3.5 hrs
[21] = transfected 1.25-10 μM for 3.5 hrs, two doubling times, CCK-8

Procedure for A549 lung cancer cells: as §1
Procedure for H596 lung cancer cells: as §1

## DLVISFQGMLCVLDYFIK [7α-L8G]
[1]; [17]
  effect on viability of BT-549 breast cancer cells: inhibit viability of breast cancer cells

## DLVISFQLMLCVLDYF (listed as Homo sapiens) [7α-17c]
Cancer cells; [18]
  effect on viability of cancer cells: decrease viability of cancer cells
CMG helicase [2]
  inhibition of CMG helicase in vitro (chromatin RPA Western blot): inhibit CMG helicase in vitro

## LMGCVL [7MM6-G4]
Cancer cells; [19]
  effect on viability of cancer cells: decrease viability of cancer cells
CMG helicase [3]
  inhibition of CMG helicase: inhibit CMG helicase

## QGMLCVL [7MM-G2]
Cancer cells; [19]
  effect on viability of cancer cells: decrease viability of cancer cells
CMG helicase [3]
  inhibition of CMG helicase: inhibit CMG helicase

## GMLCVLD [7MM6-G2-D]
Cancer cells; [19]
  effect on viability of cancer cells: decrease viability of cancer cells
CMG helicase [3]
  inhibition of CMG helicase: inhibit CMG helicase

## QLMGCVL [7MM-G4]
Cancer cells; [19]
  effect on viability of cancer cells: decrease viability of cancer cells
CMG helicase [3]
  inhibition of CMG helicase: inhibit CMG helicase

## DVISFQLMLCVL (DLVISFQLMLCVL; listed as Homo sapiens) [7α-14c]
Cancer cells; [18]
  effect on viability of cancer cells: decrease viability of cancer cells
CMG helicase [2]
  inhibition of CMG helicase in vitro (chromatin RPA Western blot): inhibit CMG helicase in vitro
[1]; [20]
  effect on viability of BT-549 breast cancer cells: decrease viability

## ISFQLMLCVLDYFIK (listed as Homo sapiens) [7α-3n]
Cancer cells; [18]
  effect on viability of cancer cells: decrease viability of cancer cells
CMG helicase [2]
  inhibition of CMG helicase in vitro (chromatin RPA Western blot): inhibit CMG helicase in vitro

## LVISFQLMLCVLDYFIK (listed as Homo sapiens) [7α-1n]
Cancer cells; [18]
  effect on viability of cancer cells: decrease viability of cancer cells
CMG helicase [2]
  inhibition of CMG helicase in vitro (chromatin RPA Western blot): inhibit CMG helicase in vitro

## LMGCVLD [7MM6-G4-D]
Cancer cells; [19]
  effect on viability of cancer cells: decrease viability of cancer cells
CMG helicase [3]
  inhibition of CMG helicase: inhibit CMG helicase

## QLMLCVL [7MM, QLMLCVL]
A549 lung cancer cells
  IC50: 15.6 µM
A549 lung cancer cells; [21]
  effect on viability of A549 lung cancer cells: decreases viability
[4]
  IC50: 9.7 µM
[4]; [21]
  effect on viability of HT1080 fibrosarcoma cancer cells: decreases viability
[5]
  IC50: 13 µM
[5]; [21]
  effect on viability of PC3 prostate cancer cells: decreases viability
H596 lung cancer cells
  IC50: 7.6 µM
H596 lung cancer cells; [21]
  effect on viability of H596 lung cancer cells: decreases viability
[6]
  IC50: 60.4 µM
[6]; [21]
  effect on viability of SVG p12 normal glial cells: does not affect viability
[7]
  IC50: 4.9 µM
[7]; [21]
  effect on viability of HCT-116 colorectal cancer cells: decreases viability
[8]
  IC50: 7.7 µM
[8]; [21]
  effect on viability of M059J glioma cells: decreases viability
[9]
  IC50: 79.9 µM
[9]; [21]
  effect on viability of hTERT-HPNE normal pancreatic cells: does not affect viability
HepG2 liver cancer cells
  IC50: 14.2 µM
[10]
  IC50: 10.6 µM
[10]; [21]
  effect on viability of DU145 prostate cancer cells: decreases viability
[1]
  IC50: 6.8 µM
[11]
  IC50: 100 µM
[11]; [21]
  effect on viability of THLE-3 normal liver cells: does not affect viability
[12]
  IC50: 5.7 µM
[12]; [21]
  effect on viability of Hs 766T pancreatic cancer cells: decreases viability
[13]
  IC50: 9.6 µM
[13]; [21]
  effect on viability of U-2 OS osteosarcoma cancer cells: decreases viability
[14]
  IC50: 10.1 µM
[15]
  IC50: 77.5 µM
[15]; [21]
  effect on viability of HMEC normal breast cells: does not affect viability
[16]
  IC50: 110 µM
[16]; [21]
  effect on viability of HLF normal primary lung fibroblasts: does not affect viability

## SFQLMLCVLDYFIK (listed as Homo sapiens) [7α-4n]
Cancer cells; [18]
  effect on viability of cancer cells: decrease viability of cancer cells
CMG helicase [2]
  inhibition of CMG helicase in vitro (chromatin RPA Western blot): inhibit CMG helicase in vitro

## GMLCVL [7MM6-G2]
Cancer cells; [19]
  effect on viability of cancer cells: decrease viability of cancer cells
CMG helicase [3]
  inhibition of CMG helicase: inhibit CMG helicase

## DVISFQLML (DLVISFQLML; listed as Homo sapiens) [7α-11c]
Cancer cells; [18]
  effect on viability of cancer cells: decrease viability of cancer cells
CMG helicase [2]
  inhibition of CMG helicase in vitro (chromatin RPA Western blot): inhibit CMG helicase in vitro
[1]; [20]
  effect on viability of BT-549 breast cancer cells: decrease viability

## QLMLCVLD [7MM-D]
Cancer cells; [19]
  effect on viability of cancer cells: decrease viability of cancer cells
CMG helicase [3]
  inhibition of CMG helicase: inhibit CMG helicase

## FQLMLCVLDYFIK (listed as Homo sapiens) [7α-5n]
Cancer cells; [18]
  effect on viability of cancer cells: decrease viability of cancer cells
CMG helicase [2]
  inhibition of CMG helicase in vitro (chromatin RPA Western blot): inhibit CMG helicase in vitro

## DLVISFALMLCVLDYFIK [7α-Q7A]
[1]; [17]
  effect on viability of BT-549 breast cancer cells: inhibit viability of breast cancer cells

## ISFQLMLCVLDYF [7M, ISFQLMLCVLDYF]
[6]
  IC50: 109 µM
[8]
  IC50: 6.8 µM
HepG2 liver cancer cells
  IC50: 10 µM
[1]
  IC50: 6.6 µM
[14]
  IC50: 7.4 µM

## DVISFQLMLCVLD (DLVISFQLMLCVLD; listed as Homo sapiens) [7α-15c]
Cancer cells; [18]
  effect on viability of cancer cells: decrease viability of cancer cells
CMG helicase [2]
  inhibition of CMG helicase in vitro (chromatin RPA Western blot): inhibit CMG helicase in vitro
[1]; [20]
  effect on viability of BT-549 breast cancer cells: decrease viability

## VISFQLMLCVLDYFIK (listed as Homo sapiens) [7α-2n]
Cancer cells; [18]
  effect on viability of cancer cells: decrease viability of cancer cells
CMG helicase [2]
  inhibition of CMG helicase in vitro (chromatin RPA Western blot): inhibit CMG helicase in vitro

## DLVISFQLMLCVLDY (listed as Homo sapiens) [7α-16c]
Cancer cells; [18]
  effect on viability of cancer cells: decrease viability of cancer cells
CMG helicase [2]
  inhibition of CMG helicase in vitro (chromatin RPA Western blot): inhibit CMG helicase in vitro

## LMLCVLDYFIK (listed as Homo sapiens) [7α-7n]
Cancer cells; [18]
  effect on viability of cancer cells: decrease viability of cancer cells
CMG helicase [2]
  inhibition of CMG helicase in vitro (chromatin RPA Western blot): inhibit CMG helicase in vitro
[1]; [20]
  effect on viability of BT-549 breast cancer cells: decrease viability

## LMLCVLD [7MM6-D]
Cancer cells; [19]
  effect on viability of cancer cells: decrease viability of cancer cells
CMG helicase [3]
  inhibition of CMG helicase: inhibit CMG helicase

## QLMLCVLDYFIK (listed as Homo sapiens) [7α-6n]
Cancer cells; [18]
  effect on viability of cancer cells: decrease viability of cancer cells
CMG helicase [2]
  inhibition of CMG helicase in vitro (chromatin RPA Western blot): inhibit CMG helicase in vitro
[1]; [20]
  effect on viability of BT-549 breast cancer cells: decrease viability

## LMLCVL [7MM6]
Cancer cells; [19]
  effect on viability of cancer cells: decrease viability of cancer cells
CMG helicase [3]
  inhibition of CMG helicase: inhibit CMG helicase

Source: patent publication US12297295B2, “Peptide for treating cancer” (Saint Leo University, priority 2019, dated 2025)
